“Also recorded” adds a separate entry of the source.
What was measured:
HMG-CoA reductase = HMG-CoA reductase activity in treated Y1 cells; type: cell-based, mouse; conditions: increasing concentrations
Description: Cells were washed twice with ice-cold PBS and incubated with ice-cold assay buffer (0.1M sucrose, 40 mM KH2PO4, 30 mM EDTA, 50 mM KCl, 5 mM DTT, 0.25% (v/v) of Brij 96, at pH 7.4) on ice for 20 minutes. After centrifugation for 3 minutes at 14000 g (4° C.) the supernatants were collected and used for HMG-CoA reductase activity assay. The total 150 l assay mixture contained 100-200 g protein and the NADPH-generating system (2.5 mM NADP, 20 mM glucose 6-phosphate and 20 U/ml glucose 6-phosphate dehydrogenase). The reaction was started by adding substrate (^14C-HMG-CoA, 0.1 Ci) and stopped after 45 minutes by adding 10-1 of HCl 6M. ^3H-mevalonolactone was also added to the samples as an extraction recovery marker. After an additional 30 minutes incubation time, to allow complete lactonization of the product, the mixture was centrifuged. The supernatant was applied to Bond-Elut NH2 column and eluted with 1 ml of toluene/acetone (3:1). The eluate was discarded and further 4 ml of toluene/acetone was applied to the column and collected in a scintillation vial for counting ^14C-mevalonate and 3H-mevalonolactone signals (Berkhout et al., 1990).

[1] = test system: steroidogenesis acute regulatory protein (StAR); assay: Immunoblot of StAR protein levels in Y1 cells; type: cell-based, mouse; conditions: 1 μM procaine, 48 hour treatment, 3 hour dbcAMP
Description: At the end of the treatment protocol described above, Y1 cells at 90% confluency were washed 2 times with PBS, sonicated 15 seconds in extraction buffer and centrifuged at 18,500 g for 15 minutes at 4° C. Pellets were resuspended in ice-cold lysis buffer (1% Nonidet 40 in extraction buffer), sonicated briefly, and incubated on ice for 1 hour. After centrifugation (22,500 g×30 min, 4° C.), the supernatant was mixed in sample buffer 6× (0.27 M SDS, 0.6 M dithiothreitol, 0.18 M bromphenol blue in 7 ml of 0.5 M Tris-HCl, pH 6.8, and 3 ml glycerol) and boiled for 5 minutes. Proteins were subjected to SDS-PAGE (4-20% gradient SDS polyacrylamide gel) and electrophoretically transferred onto nitrocellulose membranes. The transblot sheets were blocked with 5% non fat dry milk in 25 mM Tris HCl, pH 7.5, 150 mM NaCl, and 0.1% Tween 20 overnight at 4° C. Membranes were then incubated with appropriately diluted primary antibodies 1:800 for anti-P-450SCC (Research Diagnostics Inc. Flanders, N.J.) and 1:200 for anti-StAR (Amri et al., 1996), and the reaction was detected by a peroxidase-conjugated secondary antibody (Santa Cruz Biotechnology, Santa Cruz, Calif.) and enhanced chemiluminescence (Amersham Life, Arlington Heights, Ill.). The densities of the appropriate bands were determined using the OptiQuant Acquisition & Analysis software (Packard BioScience).

HMG-CoA reductase mRNA = HMG-CoA reductase mRNA expression by Q-PCR in Hepa1-6 cells; type: cell-based; conditions: Hepa1-6 mouse liver hepatoma cells
Description: After treatment, cells were stimulated with 1 mM dbcAMP for 24 hours. At the end of the incubation, total cell RNA was extracted using. RNA STAT-60 (Tel-Test Inc, Friendswood, Tex.) according to the manufacturer's instructions. HMG-CoA reductase mRNA was quantified by Q-PCR using the ABI Prism 7700 sequence detection system (Perlin-Elmer/Applied Biosystems, Foster City, Calif.). RT reaction was performed using TaqMan® Reverse Transcription Reagents with 1 g total RNA and random hexamers as primers for each reaction according to the manufacturer's instructions. For quantifying mouse HMG-CoA reductase mRNA with Q-PCR, the primers were designed according to GenBank Accession Number BC 019782 using PE/AB Primer Express software, which is specifically designed for the selection of primers and probes. The forward primer was 5′-[…]-3′ (22 nucleotides) and reverse primer was 5′-[…]-3′ (23 nucleotides), respectively. The primers were synthesized by Bio-Synthesis Inc. (Lewisville, Tex.). Reactions were performed in a reaction mixture consisting of a 20 l volume solution containing 10 l SYBR® Green PCR Master Mix and 1 l primers mix (5 M each) with 2 l cDNA.

[2] = test system: H295R human adrenal tumor cells; assay: dbcAMP-induced cortisol synthesis in H295R cells (RIA); type: cell-based
Description: Culture media were then changed and cells were stimulated with 1 mM dbcAMP and the treatment for 24 to 48 hours. […] The synthesis of 20-OH progesterone and progesterone in Y1 and MA-10 cell media respectively were measured by RIA (Brown et al., 1992). H295R human adrenal tumor cells were seeded in 48-well plates at 10^5 cells/well and incubated for 24 hours. […] At the end of the incubation time period, cells were treated with 1 mM dbcAMP for 48 hours. Cortisol levels in the media were determined by radioimmunoassay as previously described (Amri et al., 1996).

## CCN(CC)CCOC(=O)c1ccc(N)cc1 [procaine]
HMG-CoA reductase
  HMG-CoA reductase activity in treated cells: reduced in a dose-dependent manner
[1]
  levels of the mature 30 kDa StAR protein: did not affect
[1]; listed as Procaine
  levels of the mature 30 kDa StAR protein: had no effect
HMG-CoA reductase mRNA
  dbcAMP-induced HMG-CoA reductase mRNA levels: inhibited; also recorded: robust
[2]; H295R cells, 1 mM dbcAMP
  dbcAMP-stimulated cortisol production: inhibited the dbcAMP-stimulated cortisol production in a dose-dependent manner
[2]; H295R cells, no dbcAMP
  basal cortisol production: without effecting basal cortisol production
[2]; H295R versus Y1
  sensitivity of human adrenal tumor cells versus mouse adrenal cells: less sensitive

Source: patent US20060194815A1, “Methods and compositions for modulating serum cortisol levels” (priority 2003, published 2006)
